Experimental data from ChEMBL document CHEMBL1909046, “DrugMatrix in vitro pharmacology data”.

Columns and labels:
[1] = molecular target: Aldo-keto reductase family 1 member B1 (Rattus norvegicus, UniProt P07943); assay: biochemical; format: tissue-based, Lens of camera-type eye;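 note: inhibition of aldose reductase enzyme activity, measured with DL-glyceraldehyde as the substrate; in other assays of this panel Not Active means under 50% inhibition at 10 µM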
[2] = DRUGMATRIX: Nicotinic Acetylcholine radioligand binding (ligand: [125I] Epibatidine); format: cell membranes, Membrane; conditions: imr-32; Not Active = under 50% inhibition at 10 µM
[3] = molecular target: T1, Angiotensin-converting enzyme (Oryctolagus cuniculus, UniProt P12822); format: tissue-based, Lung;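 note: enzymatic inhibition of angiotensin-converting enzyme measured with FAPGG as the substrate; in other assays of this panel Not Active means under 50% inhibition at 10 µM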
T1 sequence (P12822 whole entry): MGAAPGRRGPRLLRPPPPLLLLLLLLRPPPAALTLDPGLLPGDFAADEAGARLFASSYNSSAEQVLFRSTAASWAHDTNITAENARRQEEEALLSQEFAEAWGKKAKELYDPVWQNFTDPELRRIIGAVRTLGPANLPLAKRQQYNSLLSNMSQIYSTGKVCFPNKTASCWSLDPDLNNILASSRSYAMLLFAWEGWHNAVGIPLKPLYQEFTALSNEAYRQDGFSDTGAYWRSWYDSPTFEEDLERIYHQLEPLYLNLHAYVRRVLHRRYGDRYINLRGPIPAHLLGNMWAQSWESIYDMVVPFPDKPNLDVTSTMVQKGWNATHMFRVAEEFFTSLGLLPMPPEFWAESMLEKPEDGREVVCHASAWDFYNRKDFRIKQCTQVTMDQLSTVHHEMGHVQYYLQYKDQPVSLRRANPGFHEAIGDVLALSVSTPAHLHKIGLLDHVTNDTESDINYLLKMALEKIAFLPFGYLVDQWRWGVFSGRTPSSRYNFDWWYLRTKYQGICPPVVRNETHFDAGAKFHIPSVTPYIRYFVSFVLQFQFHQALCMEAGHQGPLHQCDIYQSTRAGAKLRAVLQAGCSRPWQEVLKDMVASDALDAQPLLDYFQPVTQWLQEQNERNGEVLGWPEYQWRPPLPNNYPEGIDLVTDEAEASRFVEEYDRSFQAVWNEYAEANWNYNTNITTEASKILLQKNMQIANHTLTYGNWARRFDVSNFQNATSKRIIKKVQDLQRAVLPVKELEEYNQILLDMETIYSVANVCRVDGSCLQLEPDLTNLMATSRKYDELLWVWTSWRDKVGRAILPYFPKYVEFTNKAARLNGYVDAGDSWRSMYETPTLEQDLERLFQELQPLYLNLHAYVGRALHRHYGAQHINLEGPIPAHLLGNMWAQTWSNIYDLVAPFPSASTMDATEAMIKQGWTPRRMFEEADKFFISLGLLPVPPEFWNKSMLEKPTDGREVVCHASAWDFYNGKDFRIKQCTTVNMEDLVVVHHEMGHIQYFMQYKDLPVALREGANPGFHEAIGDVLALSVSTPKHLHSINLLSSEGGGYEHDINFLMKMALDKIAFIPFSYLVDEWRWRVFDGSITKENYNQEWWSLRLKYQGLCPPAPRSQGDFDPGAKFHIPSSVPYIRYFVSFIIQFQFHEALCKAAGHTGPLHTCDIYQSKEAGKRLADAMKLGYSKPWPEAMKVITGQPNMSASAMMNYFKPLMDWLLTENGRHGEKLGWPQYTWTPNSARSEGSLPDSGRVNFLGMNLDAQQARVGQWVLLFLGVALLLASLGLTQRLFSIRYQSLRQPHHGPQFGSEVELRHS

[4] = molecular target: T2, Muscarinic acetylcholine receptor M4 (Homo sapiens, UniProt P08173); format: cell membranes, CHO-K1, Membrane; conditions: cho-k1; note: in other assays of this panel Not Active means under 50% inhibition at 10 µM
T2 sequence (P08173 whole entry): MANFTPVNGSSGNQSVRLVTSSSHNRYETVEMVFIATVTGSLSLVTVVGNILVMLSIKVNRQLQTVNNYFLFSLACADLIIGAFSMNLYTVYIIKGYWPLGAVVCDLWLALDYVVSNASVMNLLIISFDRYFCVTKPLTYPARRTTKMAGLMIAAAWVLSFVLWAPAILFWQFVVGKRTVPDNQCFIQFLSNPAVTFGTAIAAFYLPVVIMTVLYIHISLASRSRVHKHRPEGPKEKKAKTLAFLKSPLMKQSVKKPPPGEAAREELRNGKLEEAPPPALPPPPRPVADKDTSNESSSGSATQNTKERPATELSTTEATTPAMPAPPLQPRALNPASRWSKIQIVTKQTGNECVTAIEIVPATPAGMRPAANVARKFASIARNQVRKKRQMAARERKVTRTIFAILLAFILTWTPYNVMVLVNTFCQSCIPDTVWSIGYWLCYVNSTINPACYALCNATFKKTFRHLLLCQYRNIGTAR

[5] = molecular target: T3, 3-hydroxy-3-methylglutaryl-coenzyme A reductase (Homo sapiens, UniProt P04035); parameters: species or system Escherichia coli;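 note: enzyme inhibition assay of HMG-CoA reductase using radiolabeled [14C]HMG-CoA as substrate; in other assays of this panel Not Active means under 50% inhibition at 10 µM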
T3 sequence (P04035 whole entry): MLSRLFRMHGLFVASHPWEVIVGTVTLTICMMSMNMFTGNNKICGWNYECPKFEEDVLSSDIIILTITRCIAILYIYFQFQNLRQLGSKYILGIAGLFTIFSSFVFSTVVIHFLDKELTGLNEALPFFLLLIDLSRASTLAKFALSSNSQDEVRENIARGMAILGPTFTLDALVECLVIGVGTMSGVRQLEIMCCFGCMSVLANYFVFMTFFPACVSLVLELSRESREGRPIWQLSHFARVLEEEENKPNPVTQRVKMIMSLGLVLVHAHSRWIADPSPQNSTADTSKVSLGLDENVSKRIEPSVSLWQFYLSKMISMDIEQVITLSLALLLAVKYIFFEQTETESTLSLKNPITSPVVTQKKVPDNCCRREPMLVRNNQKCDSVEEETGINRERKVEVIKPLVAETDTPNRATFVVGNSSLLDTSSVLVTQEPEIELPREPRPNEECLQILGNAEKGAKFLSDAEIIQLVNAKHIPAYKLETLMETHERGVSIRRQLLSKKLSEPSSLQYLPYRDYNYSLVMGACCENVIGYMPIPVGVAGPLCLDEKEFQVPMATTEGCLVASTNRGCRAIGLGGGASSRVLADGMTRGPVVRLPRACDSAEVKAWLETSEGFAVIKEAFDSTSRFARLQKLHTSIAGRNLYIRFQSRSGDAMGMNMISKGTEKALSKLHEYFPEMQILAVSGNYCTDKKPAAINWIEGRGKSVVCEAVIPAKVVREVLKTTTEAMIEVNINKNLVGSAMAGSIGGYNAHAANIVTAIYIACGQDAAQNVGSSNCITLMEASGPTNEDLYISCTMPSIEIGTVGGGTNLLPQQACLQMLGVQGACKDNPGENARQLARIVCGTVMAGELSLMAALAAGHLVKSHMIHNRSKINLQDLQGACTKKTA

[6] = molecular target: Beta-3 adrenergic receptor (Homo sapiens, UniProt P13945); assay: DRUGMATRIX: Adrenergic beta3 radioligand binding (ligand: [125I] Cyanopindolol); format: cell membranes, HEK293, Membrane; conditions: hek293; Not Active = under 50% inhibition at 10 µM
Chain of Beta-3 adrenergic receptor (P13945 whole entry): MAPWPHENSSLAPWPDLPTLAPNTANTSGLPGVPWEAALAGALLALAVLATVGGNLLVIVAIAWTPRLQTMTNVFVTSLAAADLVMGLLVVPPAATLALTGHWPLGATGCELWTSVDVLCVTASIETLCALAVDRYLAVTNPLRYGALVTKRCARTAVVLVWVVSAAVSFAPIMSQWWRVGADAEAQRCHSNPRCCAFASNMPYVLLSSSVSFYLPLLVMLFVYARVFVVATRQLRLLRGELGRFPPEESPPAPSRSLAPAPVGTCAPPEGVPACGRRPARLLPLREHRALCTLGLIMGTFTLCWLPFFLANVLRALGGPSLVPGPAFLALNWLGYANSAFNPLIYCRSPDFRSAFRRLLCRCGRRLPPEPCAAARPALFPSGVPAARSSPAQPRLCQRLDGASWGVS

[7] = DRUGMATRIX: Glutamate, NMDA, Agonism radioligand binding (ligand: [3H] CGP-39653); format: cell membranes, Rattus norvegicus, Wistar, Cerebral cortex, Membrane; conditions: Not Active = under 50% inhibition at 10 µM

SMILES | IC50 [1] | IC50 [2] | Ki [2] | IC50 [3] | IC50 [4] | IC50 [5] | IC50 [6] | IC50 [7] | Ki [7] | IC50 ([1]; read-out: IC50) [µM]
CCc1oc2ccccc2c1C(=O)c1cc(Br)c(O)c(Br)c1 [BENZBROMARONE] | Not Active | Not Active | Not Active | Not Active | Not Active | Not Active | Not Active | Not Active | Not Active | –
O=c1cc(-c2ccccc2)oc2ccc3ccccc3c12 [BETA-NAPHTHOFLAVONE] | Not Active | Not Active | Not Active | Not Active | Not Active | Not Active | Not Active | Not Active | Not Active | –
CC(C)C[C@H]1C(=O)N2CCC[C@H]2[C@]2(O)O[C@](NC(=O)[C@@H]3C=C4c5cccc6[nH]c(Br)c(c56)C[C@H]4N(C)C3)(C(C)C)C(=O)N12 [BROMOCRIPTINE] | Not Active | Not Active | Not Active | Not Active | Not Active | Not Active | Not Active | Not Active | Not Active | –
CS(=O)(=O)OCCCCOS(C)(=O)=O [BUSULFAN] | Not Active | Not Active | Not Active | Not Active | Not Active | Not Active | Not Active | Not Active | Not Active | –
O=C(/C=C/c1ccc(O)c(O)c1)OCCc1ccccc1 [CAFFEIC ACID PHENETHYL ESTER] | – | Not Active | Not Active | Not Active | Not Active | Not Active | Not Active | Not Active | Not Active | 1.41
COc1cc(CNC(=O)CCCC/C=C/C(C)C)ccc1O [CAPSAICIN] | Not Active | Not Active | Not Active | Not Active | Not Active | Not Active | Not Active | Not Active | Not Active | –
NC(=O)N1c2ccccc2C=Cc2ccccc21 [CARBAMAZEPINE] | Not Active | Not Active | Not Active | Not Active | Not Active | Not Active | Not Active | Not Active | Not Active | –
CCOC(=O)n1ccn(C)c1=S [CARBIMAZOLE] | Not Active | Not Active | Not Active | Not Active | Not Active | Not Active | Not Active | Not Active | Not Active | –
Oc1ccccc1O [CATECHOL] | Not Active | Not Active | Not Active | Not Active | Not Active | Not Active | Not Active | Not Active | Not Active | –
CO[C@@]1(NC(=O)CSCC#N)C(=O)N2C(C(=O)O)=C(CSc3nnnn3C)CS[C@@H]21 [CEFMETAZOLE] | Not Active | Not Active | Not Active | Not Active | Not Active | Not Active | Not Active | Not Active | Not Active | –
CN(C(=O)CCCOc1ccc2[nH]c(=O)ccc2c1)C1CCCCC1 [CILOSTAMIDE] | Not Active | Not Active | Not Active | Not Active | Not Active | Not Active | Not Active | Not Active | Not Active | –
CC(C)(Oc1ccc(C2CC2(Cl)Cl)cc1)C(=O)O (stereo not drawn) [CIPROFIBRATE] | Not Active | Not Active | Not Active | Not Active | Not Active | Not Active | Not Active | Not Active | Not Active | –
Nc1nc(Cl)nc2c1ncn2[C@H]1C[C@H](O)[C@@H](CO)O1 [CLADRIBINE] | Not Active | Not Active | Not Active | Not Active | Not Active | Not Active | Not Active | Not Active | Not Active | –
CC[C@H]1OC(=O)[C@H](C)[C@@H](O[C@H]2C[C@@](C)(OC)[C@@H](O)[C@H](C)O2)[C@H](C)[C@@H](O[C@@H]2O[C@H](C)C[C@H](N(C)C)[C@H]2O)[C@](C)(OC)C[C@@H](C)C(=O)[C@H](C)[C@@H](O)[C@]1(C)O [CLARITHROMYCIN] | Not Active | Not Active | Not Active | Not Active | Not Active | Not Active | Not Active | Not Active | Not Active | –
CCC[C@@H]1C[C@@H](C(=O)N[C@@H]([C@H]2O[C@H](SC)[C@H](O)[C@@H](O)[C@H]2O)[C@H](C)Cl)N(C)C1 [CLINDAMYCIN] | Not Active | Not Active | Not Active | Not Active | Not Active | Not Active | Not Active | Not Active | Not Active | –
O=C(O)c1cc(=O)c2c(OCC(O)COc3cccc4oc(C(=O)O)cc(=O)c34)cccc2o1 [CROMOLYN] | Not Active | Not Active | Not Active | Not Active | Not Active | Not Active | Not Active | Not Active | Not Active | –
O=P1(N(CCCl)CCCl)NCCCO1 (stereo not drawn) [CYCLOPHOSPHAMIDE ANHYDROUS] | Not Active | Not Active | Not Active | Not Active | Not Active | Not Active | Not Active | Not Active | Not Active | –
